From paper PMC10002984, “Dual PTP1B/TC-PTP Inhibitors: Biological Evaluation of 3-(Hydroxymethyl)cinnoline-4(1H)-Ones” (International Journal of Molecular Sciences, 2023)
Marks after values point to notes of the source that are not given here.

How the values were obtained:
[1] = test system: male rats with HFD-induced obesity; assay: Blood glucose, insulin and leptin levels and insulin resistance index in obese rats; format: in vivo, male Wistar rats; conditions: for Glucose, After / Insulin, After / Leptin, After / Glucose, Before / Insulin, Before / Leptin, Before: blood, M ± SEM, n = 5; for Glucose, After / Insulin, After / Leptin, After / IR (insulin resistance index), After: after five-day i.p. treatment, 7 mg/kg (1, 2), 8 mg/kg (3), 10 mg/kg (4); for Glucose, Before / Insulin, Before / Leptin, Before / IR (insulin resistance index), Before: before treatment (baseline); for IR (insulin resistance index), After / IR (insulin resistance index), Before: product of blood glucose and insulin concentrations
Protocol: (§1) Further, six groups were formed: control (Con, n = 10), obesity (Ob, n = 10), obese rats with five-day treatment with compounds 1 (Ob + 1, n = 5), 2 (Ob + 2, n = 5), 3 (Ob + 3, n = 10), and 4 (Ob + 4, n = 10). All compounds were administered in DMSO (300 µL) at a daily dose of 7 mg/kg (1 and 2), 8 mg/kg (3), and 10 mg/kg (4) (i.p.), based on the results of the preliminary experiments. The used doses of compounds 1–4, in terms of the number of moles of each compound per kg of animal body weight, were equivalent. Control and obese rats received DMSO in the same volumes (300 µL), instead of the tested compounds. During the five days of the experiment, all animals were transferred to standard food and had free access to food and drinking water. […] The test was carried out on the morning of the next day after the last (fifth) injection of the compounds or DMSO, after a 10 h fast. The rest of the animals (n = 5 in each group) were anesthetized and decapitated on the last day of the experiment. The blood and liver samples were taken to measure blood glucose and hormone levels and gene expression in the liver.
The glucose levels in the blood obtained from the tail vein were measured using a glucometer (Life Scan Johnson & Johnson, Denmark) and the test strips “One Touch Ultra” (USA). The levels of insulin and leptin in rat serum were estimated with the “Rat Insulin ELISA” (Mercodia AB, Uppsala, Sweden) and “ELISA for Leptin, Rat” (Cloud-Clone Corporation, Houston, TX, USA) kits. The GTT was carried out using a single injection of glucose (2 g/kg, i.p.) after 10 h of fasting, as described earlier. The blood glucose levels were measured before (0 min) and 15, 30, 60, and 120 min after the glucose load.

[2] = test system: TCPTP gene; assay: Gene expression in the liver of obese rats (qPCR), TCPTP gene; format: in vivo, rat; conditions: five-day treatment, vs Ob group
Protocol: as §1
The total RNA was isolated from the liver samples of rats using the “ExtractRNA Reagent” (Evrogen, Moscow, Russia), and the samples containing 1 μg of RNA were transcribed to cDNA using the random oligodeoxynucleotide primers and the “MMLV RT kit” (Evrogen, Russia). The amplification procedure was carried out in the mixture containing 10 ng of reverse transcribed product, 0.4 μM of the forward and reverse primers, and the “qPCRmix-HS SYBR + LowROX kit” (Evrogen, Russia). The amplified signals were detected using the “Applied Biosystems® 7500 Real-Time PCR System” (Life Technologies, Carlsbad, CA, USA, Thermo Fisher Scientific Inc., USA). The primers that were used to assess the expression of genes encoding the phosphatase PTP1B, TC-PTP, and SHP1 and the insulin and leptin receptors are presented in Table 4. The obtained data were calculated with the delta–delta Ct method and expressed as a fold expression, relative to the corresponding control. […]

Structure (SMILES): O=c1c(CO)n[nH]c2ccccc12 [Compound 1]
- Glucose, After [1]: 5.74 ± 0.07 ^a mM
- Insulin, After [1]: 1.11 ± 0.14 ^a ng/mL
- Leptin, After [1]: 1.72 ± 0.24 ^b,c ng/mL
- Glucose, Before [1]: 5.94 ± 0.22 ^a mM
- Insulin, Before [1]: 1.57 ± 0.16 ^a ng/mL
- Leptin, Before [1]: 3.06 ± 0.40 ^a ng/mL
- IR (insulin resistance index), After [1]: 6.32 ± 0.77 ^a arb.Units
- IR (insulin resistance index), Before [1]: 9.46 ± 1.31 ^a arb.Units
- expression of the TCPTP gene in the liver [2]: significant difference to the Ob group

Structure (SMILES): O=c1c(CO)n[nH]c2ccc(Cl)cc12 [Compound 3, 6-Chloro-3-(hydroxymethyl)cinnolin-4(1H)-one]
- Glucose, After [1]: 5.36 ± 0.31 ^a mM
- Insulin, After [1]: 0.93 ± 0.13 ^b,c ng/mL
- Leptin, After [1]: 1.52 ± 0.21 ^b,c ng/mL
- Glucose, Before [1]: 5.80 ± 0.31 ^a mM
- Insulin, Before [1]: 1.51 ± 0.18 ^a ng/mL
- Leptin, Before [1]: 2.93 ± 0.42 ^a ng/mL
- insulin resistance index compared to the Ob group ([1]; five-day treatment, 3 8 mg/kg/day): significantly reduced
- IR (insulin resistance index), After [1]: 5.12 ± 0.97 ^b arb.Units
- IR (insulin resistance index), Before [1]: 8.96 ± 1.46 ^a arb.Units
- expression of the TCPTP gene in the liver [2]: significant difference to the Ob group

Structure (SMILES): O=c1c(CO)n[nH]c2ccc(Br)cc12 [Compound 4, 6-Bromo-3-(hydroxymethyl)cinnolin-4(1H)-one]
- Glucose, After [1]: 5.24 ± 0.25 ^a mM
- Insulin, After [1]: 1.06 ± 0.13 ^a,c ng/mL
- Leptin, After [1]: 1.90 ± 0.16 ^a,b,c ng/mL
- Glucose, Before [1]: 5.72 ± 0.30 ^a mM
- Insulin, Before [1]: 1.65 ± 0.18 ^a ng/mL
- Leptin, Before [1]: 3.17 ± 0.25 ^a ng/mL
- IR (insulin resistance index), After [1]: 5.61 ± 0.89 ^a arb.Units
- IR (insulin resistance index), Before [1]: 9.63 ± 1.57 ^a arb.Units
- expression of the TCPTP gene in the liver [2]: significant difference to the Ob group
